# Laboratory results published in patent publication US10189860B2, “Hydrates of dolutegravir sodium” (LEK PHARMACEUTICALS D.D., priority 2014, dated 2019).
# Where “and” joins values, the source holds several entries; their conditions need not be identical. Equal values may be shown once. Entries after “also recorded” stand apart in the source; their conditions may differ.
# Legend:
# [1] = Particle morphology by scanning electron micrograph; format: physicochemical; conditions: SEM
# Excerpt: A figure of the morphology of Form I and form HxA is depicted in FIG. 13 (Form I) and 14 (form HxA), at different magnifications (500× magnification (Form I), 1.500× magnification (Form I and form HxA), and 5.000× magnification (form HxA)).
# [2] = Compressibility testing of API (bulk/tapped volume, compressibility index); format: physicochemical; conditions: API batches; for Compressibility index: (Vb−Vt)/Vb; for Flow character according to PhEur: PhEur Chapter 2.9.36 Powder flow
# Procedure: As described in Example 8 herein above, the sodium salt of dolutegravir was prepared in two polymorphic forms (Form I and form HxA). […] Compressibilty index is an indirect measure of different powder properties such as size, shape, surface area, cohesiveness etc. (PhEur). Bulk (Vb) and tapped (Vt) volume were measured for several batches of both forms and the compressibilty index (%) is determined based on Vb and Vt. 250 mL volumetric cylinder with test samples weight approximately 25 g were used. The compressibility index was calculated according to formula ((Vb−Vt)/Vb).
# [3] = API particle size by laser diffraction
# [4] = Gravimetric moisture sorption/desorption (GMSD) experiments; format: physicochemical; conditions: 25±0.1° C.
# Procedure: Comparative gravimetric moisture sorption/desorption experiments at 25±0.1° C. were conducted with dolutegravir sodium monohydrate of WO 2010/068253 A1 and the hydrates of the present invention designated form HxA and form Hy1B.
# The water values at varying relative humidities were obtained by recording moisture sorption/desorption isotherms with a SPS-11 moisture sorption analyzer (MD Messtechnik, Ulm, D). The samples were weighed into Teflon sample holders. […] The equilibrium condition for each step was set to a mass constancy of ±0.005% over 60 min. The temperature was 25±0.1° C. The water content of the samples was determined after the moisture sorption/desorption experiments with a TGA 7 system (Perkin Elmer, Norwalk, Conn., USA) using the Pyris 2.0 software. The samples were weighed into Al pans (50 μL). Dry nitrogen was used as purge gas (purge rate: 20 mL/min). The samples were heated from 25 to 200° C. using a heating rate of 10° C./min.
# [5] = listed as dolutegravir sodium monohydrate of WO 2010/068253 A1
# [6] = 95% RH, listed as dolutegravir sodium monohydrate of WO 2010/068253 A1
Compound,morphology of particles [1],Bulk volume [2],Tapped volume [2],Compressibility index [2],Flow character according to PhEur [2],d0.1 [3] [μm],d0.5 [3] [μm],d0.9 [3] [μm],Remarks: stable at / preserves crystal structure (RH range) [4],Δm sorption [0-90% RH] [4],Δm sorption [30-90% RH] [4],Remarks: hysteresis between sorption and desorption isotherms [4],further results
"C[C@@H]1CCO[C@H]2Cn3cc(C(=O)NCc4ccc(F)cc4F)c(=O)c([O-])c3C(=O)N12.[Na+] [Form I, reference compound]",long needle like crystals,5.55 mL/g and 7.00 mL/g and 4.89 mL/g,3.79 mL/g and 4.56 mL/g and 3.23 mL/g,32% and 35% and 34%,Very poor,3.5,10,40,–,–,–,–,needle lengths [1]: ≤ 70 μm
"C[C@@H]1CCO[C@H]2Cn3cc(C(=O)NCc4ccc(F)cc4F)c(=O)c([O-])c3C(=O)N12.[Na+] [MH of WO 2010/068253, reference compound]",–,–,–,–,–,–,–,–,"stable at 30-60% RH,",+14.0%,+10.7%,–,"Remarks: dehydration below [4]: dehydration below 30% RH,; Remarks: hysteresis at (RH range) [4]: hysterises at 40-95% RH; Remarks: dehydration below [4, 5]: Below 30 % RH; hygroscopicity [4, 5]: very hygroscopic; maximum water content [4, 6]: about 21.8%; mol of water per mol of dolutegravir sodium [4, 6]: 5.6 mol of water per mol of dolutegravir sodium"
"C[C@@H]1CCO[C@H]2Cn3cc(C(=O)NCc4ccc(F)cc4F)c(=O)c([O-])c3C(=O)N12.[Na+] [Form HxA, sodium (4R,12aS)-9-((2,4-difluorobenzyl)carbamoyl)-4-methyl-6,8-dioxo-3,4,6,8,12,12a-hexahydro-2H-pyrido[1′,2′:4,5]pyrazino[2,1-b][1,3]oxazin-7-olate]",thin-plate like morphology,4.02 mL/g and 2.88 mL/g and 3.30 mL/g and 2.89 mL/g,2.86 mL/g and 2.14 mL/g and 2.60 mL/g and 2.25 mL/g,29% and 26% and 21% and 22%,Poor and Passable,1.3,3.1,7.4,stable at 0-95% RH,+3.4%,+2.5%,no significant hysterises,"Remarks: structural changes [4]: no structural changes observed; Remarks: hysteresis between sorption and desorption isotherms ([4]; listed as form HxA): absence of a hysteresis; hygroscopicity ([4]; listed as form HxA): significantly less hygroscopic than the monohydrate of WO 2010/068253 A1; maximum water content ([4]; 95% RH): about 3.8%; mol of water per mol of dolutegravir sodium ([4]; 95% RH): 0.9 mol of water per mol of dolutegravir sodium; maximum water content ([4]; 95% RH, listed as form HxA): 3.9%; mol of water per mol of dolutegravir sodium ([4]; about 30% RH): 0.2 mol of water per mol of dolutegravir sodium; water content ([4]; about 30% RH): about 0.9%; mol of water per mol of dolutegravir sodium ([4]; about 70% RH): 0.7 mol of water per mol of dolutegravir sodium; particle sizes (primary particles) [1]: about 5 μm; morphology of particles ([1]; listed as HxA form): thin-plate like morphology; Compressibility index ([2]; listed as HxA form): 22-29%; Flow character according to PhEur ([2]; listed as HxA form): “poor” to “passable”; Particle size ([3]; achieved with crystallization only): below 10 μm"
"C[C@@H]1CCO[C@H]2Cn3cc(C(=O)NCc4ccc(F)cc4F)c(=O)c([O-])c3C(=O)N12.[Na+] [Form Hy1B, sodium (4R,12aS)-9-((2,4-difluorobenzyl)carbamoyl)-4-methyl-6,8-dioxo-3,4,6,8,12,12a-hexahydro-2H-pyrido[1′,2′:4,5]pyrazino[2,1-b][1,3]oxazin-7-olate]",–,–,–,–,–,–,–,–,–,+4.8%,+2.4%,absence of a significant hysteresis; also recorded: no significant hysterises,hygroscopicity [4]: significantly less hygroscopic than the monohydrate of WO 2010/068253 A1; mol of water per mol of dolutegravir sodium ([4]; 90% RH): 1.3 mol of water per mol of dolutegravir sodium
